From ChEMBL document CHEMBL3045406, “Enantioselective Relieving Activity of α-Methylbenzylphenylureas toward Bensulfuron-methyl Injury to Rice (Oryza sativa)” (Biosci Biotechnol Biochem, 1999)

Legend:
Oryza sativa [1] = test: Safener indices, ratio of compound effect of Oryza sativa (rice) growth rate to relieving activity against bensulfuron-methyl induced injury to Oryza sativa growth rate at 0.1 uM
Oryza sativa [2] = test: Effect on Oryza sativa (rice) assessed as growth rate at 10 uM relative to control; assay type: organism-based; conditions: in vivo
Oryza sativa [3] = test: Safener indices, ratio of compound effect of Oryza sativa (rice) growth rate to relieving activity against bensulfuron-methyl induced injury to Oryza sativa growth rate at 10 uM
Oryza sativa [4] = test: Safener indices, ratio of compound effect of Oryza sativa (rice) growth rate to relieving activity against bensulfuron-methyl induced injury to Oryza sativa growth rate at 1 uM
Oryza sativa [5] = test: Relieving activity against bensulfuron-methyl induced injury to Oryza sativa (rice) assessed as growth rate at 0.1 uM (Rbv = 46 to 53%); assay type: functional
Oryza sativa [6] = test: Effect on Oryza sativa (rice) assessed as growth rate at 1 uM relative to control; assay type: organism-based; conditions: in vivo
Oryza sativa [7] = test: Relieving activity against bensulfuron-methyl induced injury to Oryza sativa (rice) assessed as growth rate at 1 uM (Rbv = 46 to 53%); assay type: functional
[8] = Hydrophobicity, log K of the compound; assay type: physicochemical; conditions: octanol/water
Oryza sativa [9] = test: Effect on Oryza sativa (rice) assessed as growth rate at 0.1 uM relative to control; assay type: organism-based; conditions: in vivo
Oryza sativa [10] = test: Relieving activity against bensulfuron-methyl induced injury to Oryza sativa (rice) assessed as growth rate at 10 uM (Rbv = 46 to 53%); assay type: functional

COc1ccc(NC(=O)N[C@@H](C)c2ccccc2)cc1
Ratio (Oryza sativa [1]): 6
Activity (Oryza sativa [2]): 95%
Ratio (Oryza sativa [3]): 81
Ratio (Oryza sativa [4]): 57
Activity (Oryza sativa [5]): 59%
Activity (Oryza sativa [6]): 99%
Activity (Oryza sativa [7]): 81%
log K [8]: 0.211
Activity (Oryza sativa [9]): 104%
Activity (Oryza sativa [10]): 91%

COc1cccc(NC(=O)N[C@@H](C)c2ccccc2)c1
Ratio (Oryza sativa [1]): 22
Activity (Oryza sativa [2]): 99%
Ratio (Oryza sativa [3]): 94
Ratio (Oryza sativa [4]): 70
Activity (Oryza sativa [5]): 65%
Activity (Oryza sativa [6]): 99%
Activity (Oryza sativa [7]): 86%
log K [8]: 0.277
Activity (Oryza sativa [9]): 101%
Activity (Oryza sativa [10]): 97%

C[C@H](NC(=O)Nc1ccccc1F)c1ccccc1
Ratio (Oryza sativa [1]): 47
Activity (Oryza sativa [2]): 65%
Ratio (Oryza sativa [3]): 68
Ratio (Oryza sativa [4]): 65
Activity (Oryza sativa [5]): 73%
Activity (Oryza sativa [6]): 92%
Activity (Oryza sativa [7]): 81%
log K [8]: 0.367
Activity (Oryza sativa [9]): 98%
Activity (Oryza sativa [10]): 78%

C[C@@H](NC(=O)Nc1ccccc1F)c1ccccc1
Ratio (Oryza sativa [1]): 3
Activity (Oryza sativa [2]): 77%
Ratio (Oryza sativa [3]): 62
Ratio (Oryza sativa [4]): 32
Activity (Oryza sativa [5]): 47%
Activity (Oryza sativa [6]): 95%
Activity (Oryza sativa [7]): 64%
log K [8]: 0.367
Activity (Oryza sativa [9]): 97%
Activity (Oryza sativa [10]): 76%

C[C@@H](NC(=O)Nc1cccc(F)c1)c1ccccc1
Ratio (Oryza sativa [1]): -4
Activity (Oryza sativa [2]): 84%
Ratio (Oryza sativa [3]): 44
Ratio (Oryza sativa [4]): 22
Activity (Oryza sativa [5]): 47%
Activity (Oryza sativa [6]): 95%
Activity (Oryza sativa [7]): 57%
log K [8]: 0.363
Activity (Oryza sativa [9]): 99%
Activity (Oryza sativa [10]): 67%

C[C@H](NC(=O)Nc1cccc(F)c1)c1ccccc1
Ratio (Oryza sativa [1]): 21
Activity (Oryza sativa [2]): 88%
Ratio (Oryza sativa [3]): 62
Ratio (Oryza sativa [4]): 51
Activity (Oryza sativa [5]): 59%
Activity (Oryza sativa [6]): 94%
Activity (Oryza sativa [7]): 74%
log K [8]: 0.363
Activity (Oryza sativa [9]): 97%
Activity (Oryza sativa [10]): 79%

C[C@@H](NC(=O)Nc1ccc(F)cc1)c1ccccc1
Ratio (Oryza sativa [1]): -3
Activity (Oryza sativa [2]): 92%
Ratio (Oryza sativa [3]): 52
Ratio (Oryza sativa [4]): 16
Activity (Oryza sativa [5]): 47%
Activity (Oryza sativa [6]): 96%
Activity (Oryza sativa [7]): 55%
log K [8]: 0.307
Activity (Oryza sativa [9]): 98%
Activity (Oryza sativa [10]): 73%

C[C@H](NC(=O)Nc1ccc(F)cc1)c1ccccc1
Ratio (Oryza sativa [1]): 7
Activity (Oryza sativa [2]): 85%
Ratio (Oryza sativa [3]): 74
Ratio (Oryza sativa [4]): 47
Activity (Oryza sativa [5]): 51%
Activity (Oryza sativa [6]): 97%
Activity (Oryza sativa [7]): 72%
log K [8]: 0.307
Activity (Oryza sativa [9]): 96%
Activity (Oryza sativa [10]): 86%

COc1ccccc1NC(=O)N[C@H](C)c1ccccc1
Ratio (Oryza sativa [1]): -1
Activity (Oryza sativa [2]): 96%
Ratio (Oryza sativa [3]): 42
Ratio (Oryza sativa [4]): -4
Activity (Oryza sativa [5]): 54%
Activity (Oryza sativa [6]): 105%
Activity (Oryza sativa [7]): 55%
log K [8]: 0.343
Activity (Oryza sativa [9]): 100%
Activity (Oryza sativa [10]): 72%

COc1ccccc1NC(=O)N[C@@H](C)c1ccccc1
Ratio (Oryza sativa [1]): 9
Activity (Oryza sativa [2]): 95%
Ratio (Oryza sativa [3]): 46
Ratio (Oryza sativa [4]): 28
Activity (Oryza sativa [5]): 55%
Activity (Oryza sativa [6]): 99%
Activity (Oryza sativa [7]): 68%
log K [8]: 0.343
Activity (Oryza sativa [9]): 98%
Activity (Oryza sativa [10]): 74%

COc1cccc(NC(=O)N[C@H](C)c2ccccc2)c1
Ratio (Oryza sativa [1]): -5
Activity (Oryza sativa [2]): 70%
Ratio (Oryza sativa [3]): 57
Ratio (Oryza sativa [4]): 27
Activity (Oryza sativa [5]): 54%
Activity (Oryza sativa [6]): 92%
Activity (Oryza sativa [7]): 63%
log K [8]: 0.277
Activity (Oryza sativa [9]): 104%
Activity (Oryza sativa [10]): 73%

COc1ccc(NC(=O)N[C@H](C)c2ccccc2)cc1
Ratio (Oryza sativa [1]): -11
Activity (Oryza sativa [2]): 93%
Ratio (Oryza sativa [3]): 56
Ratio (Oryza sativa [4]): 7
Activity (Oryza sativa [5]): 53%
Activity (Oryza sativa [6]): 101%
Activity (Oryza sativa [7]): 58%
log K [8]: 0.211
Activity (Oryza sativa [9]): 109%
Activity (Oryza sativa [10]): 78%

CC(=O)c1ccccc1NC(=O)N[C@H](C)c1ccccc1
Ratio (Oryza sativa [1]): 1
Activity (Oryza sativa [2]): 89%
Ratio (Oryza sativa [3]): 49
Ratio (Oryza sativa [4]): 10
Activity (Oryza sativa [5]): 46%
Activity (Oryza sativa [6]): 95%
Activity (Oryza sativa [7]): 51%
log K [8]: 0.432
Activity (Oryza sativa [9]): 96%
Activity (Oryza sativa [10]): 71%

CC(=O)c1ccccc1NC(=O)N[C@@H](C)c1ccccc1
Ratio (Oryza sativa [1]): 9
Activity (Oryza sativa [2]): 96%
Ratio (Oryza sativa [3]): 50
Ratio (Oryza sativa [4]): 35
Activity (Oryza sativa [5]): 53%
Activity (Oryza sativa [6]): 97%
Activity (Oryza sativa [7]): 65%
log K [8]: 0.432
Activity (Oryza sativa [9]): 100%
Activity (Oryza sativa [10]): 73%

CC(=O)c1cccc(NC(=O)N[C@H](C)c2ccccc2)c1
Ratio (Oryza sativa [1]): 5
Activity (Oryza sativa [2]): 73%
Ratio (Oryza sativa [3]): 41
Ratio (Oryza sativa [4]): 25
Activity (Oryza sativa [5]): 50%
Activity (Oryza sativa [6]): 88%
Activity (Oryza sativa [7]): 57%
log K [8]: 0.245
Activity (Oryza sativa [9]): 98%
Activity (Oryza sativa [10]): 62%

CC(=O)c1cccc(NC(=O)N[C@@H](C)c2ccccc2)c1
Ratio (Oryza sativa [1]): 35
Activity (Oryza sativa [2]): 94%
Ratio (Oryza sativa [3]): 80
Ratio (Oryza sativa [4]): 38
Activity (Oryza sativa [5]): 65%
Activity (Oryza sativa [6]): 95%
Activity (Oryza sativa [7]): 83%
log K [8]: 0.245
Activity (Oryza sativa [9]): 96%
Activity (Oryza sativa [10]): 89%

CC(=O)c1ccc(NC(=O)N[C@H](C)c2ccccc2)cc1
Ratio (Oryza sativa [1]): 4
Activity (Oryza sativa [2]): 84%
Ratio (Oryza sativa [3]): 65
Ratio (Oryza sativa [4]): 27
Activity (Oryza sativa [5]): 49%
Activity (Oryza sativa [6]): 93%
Activity (Oryza sativa [7]): 59%
log K [8]: 0.227
Activity (Oryza sativa [9]): 96%
Activity (Oryza sativa [10]): 79%

CC(=O)c1ccc(NC(=O)N[C@@H](C)c2ccccc2)cc1
Ratio (Oryza sativa [1]): 24
Activity (Oryza sativa [2]): 96%
Ratio (Oryza sativa [3]): 74
Ratio (Oryza sativa [4]): 63
Activity (Oryza sativa [5]): 60%
Activity (Oryza sativa [6]): 99%
Activity (Oryza sativa [7]): 81%
log K [8]: 0.227
Activity (Oryza sativa [9]): 99%
Activity (Oryza sativa [10]): 86%

CCOC(=O)c1ccccc1NC(=O)N[C@H](C)c1ccccc1
Ratio (Oryza sativa [1]): 6
Activity (Oryza sativa [2]): 100%
Ratio (Oryza sativa [3]): 54
Ratio (Oryza sativa [4]): 25
Activity (Oryza sativa [5]): 53%
Activity (Oryza sativa [6]): 100%
Activity (Oryza sativa [7]): 63%
log K [8]: 0.667
Activity (Oryza sativa [9]): 100%
Activity (Oryza sativa [10]): 77%

CCOC(=O)c1ccccc1NC(=O)N[C@@H](C)c1ccccc1
Ratio (Oryza sativa [1]): 0
Activity (Oryza sativa [2]): 100%
Ratio (Oryza sativa [3]): 34
Ratio (Oryza sativa [4]): 21
Activity (Oryza sativa [5]): 50%
Activity (Oryza sativa [6]): 100%
Activity (Oryza sativa [7]): 60%
log K [8]: 0.667
Activity (Oryza sativa [9]): 100%
Activity (Oryza sativa [10]): 67%

CCOC(=O)c1cccc(NC(=O)N[C@H](C)c2ccccc2)c1
Ratio (Oryza sativa [1]): 15
Activity (Oryza sativa [2]): 88%
Ratio (Oryza sativa [3]): 77
Ratio (Oryza sativa [4]): 51
Activity (Oryza sativa [5]): 57%
Activity (Oryza sativa [6]): 94%
Activity (Oryza sativa [7]): 74%
log K [8]: 0.419
Activity (Oryza sativa [9]): 99%
Activity (Oryza sativa [10]): 87%

CCOC(=O)c1cccc(NC(=O)N[C@@H](C)c2ccccc2)c1
Ratio (Oryza sativa [1]): 44
Activity (Oryza sativa [2]): 96%
Ratio (Oryza sativa [3]): 89
Ratio (Oryza sativa [4]): 70
Activity (Oryza sativa [5]): 72%
Activity (Oryza sativa [6]): 99%
Activity (Oryza sativa [7]): 85%
log K [8]: 0.419
Activity (Oryza sativa [9]): 100%
Activity (Oryza sativa [10]): 95%

CCOC(=O)c1ccc(NC(=O)N[C@H](C)c2ccccc2)cc1
Ratio (Oryza sativa [1]): 11
Activity (Oryza sativa [2]): 92%
Ratio (Oryza sativa [3]): 79
Ratio (Oryza sativa [4]): 56
Activity (Oryza sativa [5]): 56%
Activity (Oryza sativa [6]): 100%
Activity (Oryza sativa [7]): 78%
log K [8]: 0.415
Activity (Oryza sativa [9]): 101%
Activity (Oryza sativa [10]): 89%

CCOC(=O)c1ccc(NC(=O)N[C@@H](C)c2ccccc2)cc1
Ratio (Oryza sativa [1]): 53
Activity (Oryza sativa [2]): 92%
Ratio (Oryza sativa [3]): 86
Ratio (Oryza sativa [4]): 76
Activity (Oryza sativa [5]): 76%
Activity (Oryza sativa [6]): 97%
Activity (Oryza sativa [7]): 87%
log K [8]: 0.415
Activity (Oryza sativa [9]): 99%
Activity (Oryza sativa [10]): 92%

C[C@@H](NC(=O)Nc1cccc(C(F)(F)F)c1)c1ccccc1
Ratio (Oryza sativa [1]): 26
Activity (Oryza sativa [2]): 70%
Ratio (Oryza sativa [3]): 50
Ratio (Oryza sativa [4]): 41
Activity (Oryza sativa [5]): 57%
Activity (Oryza sativa [6]): 72%
Activity (Oryza sativa [7]): 63%
log K [8]: 0.542
Activity (Oryza sativa [9]): 82%
Activity (Oryza sativa [10]): 68%

C[C@H](NC(=O)Nc1cccc(C(F)(F)F)c1)c1ccccc1
Ratio (Oryza sativa [1]): 26
Activity (Oryza sativa [2]): 92%
Ratio (Oryza sativa [3]): 66
Ratio (Oryza sativa [4]): 53
Activity (Oryza sativa [5]): 62%
Activity (Oryza sativa [6]): 93%
Activity (Oryza sativa [7]): 75%
log K [8]: 0.542
Activity (Oryza sativa [9]): 94%
Activity (Oryza sativa [10]): 82%

C[C@@H](NC(=O)Nc1ccc(C(F)(F)F)cc1)c1ccccc1
Ratio (Oryza sativa [1]): 22
Activity (Oryza sativa [2]): 82%
Ratio (Oryza sativa [3]): 42
Ratio (Oryza sativa [4]): 53
Activity (Oryza sativa [5]): 59%
Activity (Oryza sativa [6]): 89%
Activity (Oryza sativa [7]): 74%
log K [8]: 0.537
Activity (Oryza sativa [9]): 93%
Activity (Oryza sativa [10]): 67%

C[C@H](NC(=O)Nc1ccc(C(F)(F)F)cc1)c1ccccc1
Ratio (Oryza sativa [1]): 36
Activity (Oryza sativa [2]): 94%
Ratio (Oryza sativa [3]): 86
Ratio (Oryza sativa [4]): 72
Activity (Oryza sativa [5]): 67%
Activity (Oryza sativa [6]): 94%
Activity (Oryza sativa [7]): 85%
log K [8]: 0.537
Activity (Oryza sativa [9]): 94%
Activity (Oryza sativa [10]): 93%
